How the values were obtained:
TK-10 = experiment: Anticancer activity against human TK10 cells after 48 hrs by SRB assay; type: functional; details: TK-10, 48 h; for CC50: read-out: LC50 (the source's name)
OVCAR-4 = experiment: Anticancer activity against human OVCAR4 cells after 48 hrs by SRB assay; type: functional; details: OVCAR-4, 48 h
COLO 205 = experiment: Anticancer activity against human COLO205 cells after 48 hrs by SRB assay; type: functional; details: COLO 205, 48 h
NCI/ADR-RES = experiment: Anticancer activity against human NCI/ADR-RES cells after 48 hrs by SRB assay; type: functional; details: for CC50: read-out: LC50 (the source's name)
SK-OV-3 = experiment: Anticancer activity against human SKOV3 cells after 48 hrs by SRB assay; type: functional; details: SK-OV-3, 48 h; for CC50: read-out: LC50 (the source's name)
UO-31 = experiment: Anticancer activity against human UO31 cells after 48 hrs by SRB assay; type: functional; details: UO-31, 48 h; for CC50: read-out: LC50 (the source's name)
HCC 2998 = experiment: Anticancer activity against human HCC2998 cells after 48 hrs by SRB assay; type: functional; details: HCC 2998, 48 h
Mus musculus [1] = experiment: Toxicity in Swiss albino mouse assessed as behavioral change at 100 mg/kg, po measured up to 24 hrs; type: organism-based; set-up: dose 100 mg/kg, route oral; details: in vivo
[2] = molecular target: Prostaglandin G/H synthase 1 (Bos taurus, UniProt O62664); experiment: Inhibition of bovine COX1 assessed as PGE2 formation preincubated for 10 mins by ELISA
Prostaglandin G/H synthase 1, sequence (O62664 whole entry): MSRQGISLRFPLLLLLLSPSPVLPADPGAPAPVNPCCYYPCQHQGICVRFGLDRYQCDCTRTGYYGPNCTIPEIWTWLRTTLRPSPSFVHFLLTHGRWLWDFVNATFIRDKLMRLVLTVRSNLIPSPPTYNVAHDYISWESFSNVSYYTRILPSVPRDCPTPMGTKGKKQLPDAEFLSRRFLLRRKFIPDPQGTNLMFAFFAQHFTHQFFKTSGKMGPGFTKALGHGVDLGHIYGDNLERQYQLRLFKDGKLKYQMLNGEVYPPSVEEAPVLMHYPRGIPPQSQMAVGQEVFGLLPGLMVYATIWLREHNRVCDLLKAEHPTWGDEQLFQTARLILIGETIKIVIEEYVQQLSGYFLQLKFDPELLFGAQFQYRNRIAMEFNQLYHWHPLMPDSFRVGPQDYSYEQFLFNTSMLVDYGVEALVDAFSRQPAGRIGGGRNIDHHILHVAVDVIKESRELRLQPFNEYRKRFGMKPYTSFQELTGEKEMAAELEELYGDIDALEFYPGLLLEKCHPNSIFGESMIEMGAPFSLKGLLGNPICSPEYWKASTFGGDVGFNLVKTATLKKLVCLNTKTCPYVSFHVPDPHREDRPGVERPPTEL

SNB-19 = experiment: Anticancer activity against human SNB19 cells after 48 hrs by SRB assay; type: functional; details: SNB-19, 48 h
U-251 = experiment: Anticancer activity against human U251 cells after 48 hrs by SRB assay; type: functional; details: U-251, 48 h
A549 = experiment: Anticancer activity against human A549 cells after 48 hrs by SRB assay; type: functional; details: A549, 48 h
KM12 = experiment: Anticancer activity against human KM12 cells after 48 hrs by SRB assay; type: functional; details: KM12, 48 h
SW-620 = experiment: Anticancer activity against human SW620 cells after 48 hrs by SRB assay; type: functional; details: SW-620, 48 h
Mus musculus [3] = experiment: Toxicity in Swiss albino mouse assessed as mortality at 100 mg/kg, po measured up to 24 hrs; type: organism-based; set-up: dose 100 mg/kg, route oral; details: in vivo
OVCAR-3 = experiment: Anticancer activity against human OVCAR3 cells after 48 hrs by SRB assay; type: functional; details: OVCAR-3, 48 h
MDA-MB-231 = experiment: Anticancer activity against human MDA-MB-231 cells after 48 hrs by SRB assay; type: functional; details: MDA-MB-231, 48 h; for CC50: read-out: LC50 (the source's name)
CCRF-CEM = experiment: Anticancer activity against human CCRF-CEM cells after 48 hrs by SRB assay; type: functional; details: for CC50: read-out: LC50 (the source's name)
SNB-75 = experiment: Anticancer activity against human SNB75 cells after 48 hrs by SRB assay; type: functional; details: SNB-75, 48 h
Rattus norvegicus = experiment: Ulcerogenic activity in fasted Wistar albino rat at 60 mg/kg, po administered as 3 dose measured after 6 hrs post last dose; type: toxicity, organism-based; set-up: dose 60 mg/kg, route oral; details: in vivo
HCT-116 = experiment: Anticancer activity against human HCT116 cells after 48 hrs by SRB assay; type: functional; details: HCT-116, 48 h
RPMI-8226 = experiment: Anticancer activity against human RPMI8226 cells after 48 hrs by SRB assay; type: functional; details: RPMI-8226, 48 h

Cc1cc(O)c(C2=NN(c3ccc(S(N)(=O)=O)cc3)C(c3ccc(Cl)cc3)C2)c(C)c1Cl (stereo unspecified)
GI50 (TK-10): 22.1 µM | TGI (TK-10): 42.4 µM | CC50 (TK-10): 81.4 µM | GI50 (OVCAR-4): 13.3 µM | TGI (OVCAR-4): 27.6 µM | GI50 (COLO 205): 12.3 µM | TGI (COLO 205): 25.4 µM | GI50 (NCI/ADR-RES): 19.3 µM | TGI (NCI/ADR-RES): 76.4 µM | CC50 (NCI/ADR-RES): 100 µM | GI50 (SK-OV-3): 27.4 µM | TGI (SK-OV-3): 90.8 µM | CC50 (SK-OV-3): 100 µM | GI50 (UO-31): 12.7 µM | TGI (UO-31): 29.4 µM | CC50 (UO-31): 68.1 µM | GI50 (HCC 2998): 14.8 µM | TGI (HCC 2998): 30.9 µM | Activity (Mus musculus [1]): Non-toxic | IC50 [2]: 89.5 µM | GI50 (SNB-19): 22.2 µM | TGI (SNB-19): 62.6 µM | GI50 (U-251): 11.8 µM | TGI (U-251): 26.9 µM | GI50 (A549): 14.7 µM | TGI (A549): 43.4 µM | GI50 (KM12): 13.3 µM | TGI (KM12): 28.3 µM | GI50 (SW-620): 18.4 µM | TGI (SW-620): 37.8 µM | Activity (Mus musculus [3]): Non-toxic | GI50 (OVCAR-3): 17.8 µM | TGI (OVCAR-3): 33.3 µM | GI50 (MDA-MB-231): 11 µM | TGI (MDA-MB-231): 27.2 µM | CC50 (MDA-MB-231): 67.5 µM | GI50 (CCRF-CEM): 15.1 µM | TGI (CCRF-CEM): 43.5 µM | CC50 (CCRF-CEM): 100 µM | GI50 (SNB-75): 17 µM | TGI (SNB-75): 42.2 µM | Activity (Rattus norvegicus): Non-toxic

Cc1cc(O)c(C2=NN(c3ccc(S(N)(=O)=O)cc3)C(c3ccc(N(C)C)cc3)C2)c(C)c1Cl (stereo unspecified)
GI50 (TK-10): 4.48 µM | TGI (TK-10): 18.8 µM | CC50 (TK-10): 69.5 µM | GI50 (OVCAR-4): 7.68 µM | LC50 (OVCAR-4): 49.7 µM | TGI (OVCAR-4): 21.2 µM | GI50 (COLO 205): 1.69 µM | LC50 (COLO 205): 6.49 µM | TGI (COLO 205): 3.31 µM | GI50 (NCI/ADR-RES): 4.63 µM | TGI (NCI/ADR-RES): 17 µM | CC50 (NCI/ADR-RES): 4.35 µM | GI50 (SK-OV-3): 7.75 µM | TGI (SK-OV-3): 20.6 µM | CC50 (SK-OV-3): 4.54 µM | GI50 (UO-31): 3.78 µM | TGI (UO-31): 19.2 µM | CC50 (UO-31): 52.3 µM | GI50 (HCC 2998): 6.48 µM | LC50 (HCC 2998): 43.8 µM | TGI (HCC 2998): 19.1 µM | GI50 (SNB-19): 12.4 µM | LC50 (SNB-19): 49.9 µM | TGI (SNB-19): 24.9 µM | GI50 (U-251): 3.34 µM | LC50 (U-251): 53.7 µM | TGI (U-251): 13.5 µM | GI50 (A549): 5.91 µM | LC50 (A549): 73.4 µM | TGI (A549): 22.5 µM | GI50 (HCT-116): 3.47 µM | LC50 (concentration killing 50% of cells) (HCT-116): 36 µM | TGI (HCT-116): 12.9 µM | GI50 (RPMI-8226): 3.99 µM | LC50 (RPMI-8226): 22.3 µM | TGI (RPMI-8226): 5.02 µM | GI50 (KM12): 2.8 µM | LC50 (KM12): 38.2 µM | TGI (KM12): 10.6 µM | GI50 (SW-620): 3.72 µM | LC50 (concentration killing 50% of cells) (SW-620): 50.2 µM | TGI (SW-620): 15.2 µM | GI50 (OVCAR-3): 4.21 µM | LC50 (concentration killing 50% of cells) (OVCAR-3): 39.6 µM | TGI (OVCAR-3): 15.7 µM | GI50 (MDA-MB-231): 2.34 µM | TGI (MDA-MB-231): 11.8 µM | CC50 (MDA-MB-231): 38.7 µM | GI50 (CCRF-CEM): 3.64 µM | TGI (CCRF-CEM): 13.5 µM | CC50 (CCRF-CEM): 44.4 µM | GI50 (SNB-75): 10.9 µM | LC50 (SNB-75): 51.2 µM | TGI (SNB-75): 23.7 µM
